Data reported in US20260184663A1, “INDENE COMPOUNDS, PHARMACEUTICAL COMPOSITIONS THEREOF, AND THEIR THERAPEUTIC APPLICATIONS” (NucMito Pharmaceuticals co. Ltd., priority 2022, published 2026).

Assays:
Format in all cases: cell-based
[1] = tested on: MDA-MB-231 (breast cancer); assay: Antiproliferative activity (CCK-8 cell viability), MDA-MB-231; settings: Homo sapiens, 72 h; for inhibition at 3.3 µM: Compound concentration: 3.3 μM; for inhibition at 3.3 µM / inhibition at 10 µM: read-out: Antiproliferative activity in cancerous cells, MDA-MB-231 (inhibition of cell growth); for inhibition at 10 µM: Compound concentration: 10 μM
Procedure, shortened: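 In this CCK-8 viability assay, MDA-MB-231 cells maintained in Dulbecco's modified Eagle's medium containing 10% fetal bovine serum were placed in 96-well plates (2,000-5,000 cells/well) and treated with compound for 72 h at 37° C. A 4 h incubation with 10 μL CCK-8 followed, plates were read at 450 nm, and viability was expressed against DMSO vehicle wells across replicates.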

[2] = tested on: HepG2 (liver cancer); assay: Antiproliferative activity (CCK-8 cell viability), HepG2; settings: Homo sapiens, 72 h; for inhibition at 3.3 µM: Compound concentration: 3.3 μM; for inhibition at 3.3 µM / inhibition at 10 µM: read-out: Antiproliferative activity in cancerous cells, HepG2 (inhibition of cell growth); for inhibition at 10 µM: Compound concentration: 10 μM
Procedure, shortened: (§1)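 Cells were seeded at 2,000-5,000/well (HeLa in MEM, HepG2 and SW480 in DMEM, A549 in F-12K, all with 10% FBS) and treated with compound at 3.3, 10 or 30 μM for 72 h at 37° C. CCK-8 was added for 4 h, absorbance was read at 450 nm, and viability was expressed relative to DMSO-treated wells.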

[3] = tested on: SW480 (colon cancer); assay: Antiproliferative activity (CCK-8 cell viability), SW480; settings: Homo sapiens, 72 h; for inhibition at 3.3 µM: Compound concentration: 3.3 μM; for inhibition at 3.3 µM / inhibition at 10 µM: read-out: Antiproliferative activity in cancerous cells, SW480 (inhibition of cell growth); for inhibition at 10 µM: Compound concentration: 10 μM; for inhibition at 30 µM: Compound concentration: 30 μM, read-out: Antiproliferative activity in cancerous cells, SW480
Procedure, shortened: as §1

[4] = tested on: B16F10 (malignant melanoma); assay: Antiproliferative activity (CCK-8 cell viability), B16F10; settings: Mus musculus, 72 h; for inhibition at 3.3 µM: B16-F10, Compound concentration: 3.3 μM; for inhibition at 3.3 µM / inhibition at 10 µM: read-out: Antiproliferative activity in cancerous cells, B16F10 (inhibition of cell growth); for inhibition at 10 µM: B16-F10, Compound concentration: 10 μM
Procedure, shortened: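 Attached B16F10 cells in 96-well plates were incubated with compound at 37° C for 72 h, followed by 10 μL CCK-8 reagent per well and a further 4 h incubation. A multi-well plate reader measured absorbance at 450 nm. Percent viability across replicates was calculated against DMSO vehicle-treated cells.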

[5] = tested on: A431 (epidermoid carcinoma); assay: Antiproliferative activity (CCK-8 cell viability), A431; settings: Homo sapiens, 72 h; for inhibition at 3.3 µM: A-431, Compound concentration: 3.3 μM; for inhibition at 3.3 µM / inhibition at 10 µM: read-out: Antiproliferative activity in cancerous cells, A431 (inhibition of cell growth); for inhibition at 10 µM: A-431, Compound concentration: 10 μM
Procedure, shortened: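 Cell viability of compound-treated A431 cells was measured with a Cell Counting Kit-8. Each well received 10 μL of CCK-8 after 72 h of compound exposure, followed by 4 h incubation at 37° C. and a 450 nm plate-reader measurement. Percent viability was calculated relative to DMSO controls across replicates.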

[6] = tested on: A549 (lung adenocarcinoma); assay: Antiproliferative activity (CCK-8 cell viability), A549; settings: Homo sapiens, 72 h; for inhibition at 3.3 µM: Compound concentration: 3.3 μM; for inhibition at 3.3 µM / inhibition at 10 µM: read-out: Antiproliferative activity in cancerous cells, A549 (inhibition of cell growth); for inhibition at 10 µM: Compound concentration: 10 μM
Procedure, shortened: as §1

[7] = tested on: HeLa (cervical cancer); assay: Antiproliferative activity (CCK-8 cell viability), HeLa; settings: Homo sapiens, 72 h, read-out: Antiproliferative activity in cancerous cells, HELA (inhibition of cell growth); for inhibition at 3.3 µM: Compound concentration: 3.3 μM; for inhibition at 10 µM: Compound concentration: 10 μM
Procedure, shortened: as §1

SMILES | inhibition at 3.3 µM [1] [%] | inhibition at 10 µM [1] [%] | inhibition at 3.3 µM [2] [%] | inhibition at 10 µM [2] [%] | inhibition at 3.3 µM [3] [%] | inhibition at 10 µM [3] [%] | inhibition at 3.3 µM [4] [%] | inhibition at 10 µM [4] [%] | inhibition at 3.3 µM [5] [%] | inhibition at 10 µM [5] [%] | inhibition at 3.3 µM [6] [%] | inhibition at 10 µM [6] [%] | inhibition at 3.3 µM [7] [%] | inhibition at 10 µM [7] [%] | inhibition at 30 µM [3] [%] | inhibition at 30 µM ([1]; Compound concentration: 30 μM, read-out: Antiproliferative activity in cancerous cells, MDA-MB-231) [%] | inhibition at 30 µM ([2]; Compound concentration: 30 μM, read-out: Antiproliferative activity in cancerous cells, HepG2) [%] | inhibition at 30 µM ([4]; B16-F10, Compound concentration: 30 μM, read-out: Antiproliferative activity in cancerous cells, B16F10) [%] | inhibition at 30 µM ([5]; A-431, Compound concentration: 30 μM, read-out: Antiproliferative activity in cancerous cells, A431) [%] | inhibition at 30 µM ([6]; Compound concentration: 30 μM, read-out: Antiproliferative activity in cancerous cells, A549) [%]
CC1=C(CC(=O)O)c2cc(F)ccc2/C1=C\c1ccc(Oc2ccc(Cl)cc2)cc1F [C78, (Z)-2-(1-(4-(4-Chlorophenoxy)-2-fluorobenzylidene)-5-fluoro-2-methyl-1H-inden-3-yl)acetic acid] | ≥ 50 | ≥ 50 | < 30 | ≥ 50 | < 30 | 30 to 50 | < 30 | ≥ 50 | < 30 | ≥ 50 | ≥ 50 | ≥ 50 | < 30 | ≥ 50 | – | – | – | – | – | –
CC1=C(CC(=O)O)c2cc(F)ccc2/C1=C\c1ccc(Oc2ccc(Cl)cc2)cc1Oc1ccc(Cl)cc1 [C79, (Z)-2-(1-(2,4-Bis(4-chlorophenoxy)benzylidene)-5-fluoro-2-methyl-1H-inden-3-yl)acetic acid] | ≥ 50 | ≥ 50 | ≥ 50 | ≥ 50 | ≥ 50 | ≥ 50 | ≥ 50 | ≥ 50 | ≥ 50 | ≥ 50 | ≥ 50 | ≥ 50 | ≥ 50 | ≥ 50 | – | – | – | – | – | –
CC1=C(CC(=O)O)c2cc(F)ccc2/C1=C\c1ccc(Oc2ccc(Cl)cc2)cc1O [C80, (Z)-2-(1-(4-(4-Chlorophenoxy)-2-hydroxybenzylidene)-5-fluoro-2-methyl-1H-inden-3-yl)acetic acid] | ≥ 50 | ≥ 50 | < 30 | ≥ 50 | < 30 | ≥ 50 | 30 to 50 | ≥ 50 | 30 to 50 | ≥ 50 | 30 to 50 | ≥ 50 | < 30 | ≥ 50 | – | – | – | – | – | –
CC1=C(CC(=O)O)c2cc(F)ccc2/C1=C\c1ccc(Oc2ccc(O)c(Cl)c2)cc1 [C81, (Z)-2-(1-(4-(3-Chloro-4-hydroxyphenoxy)benzylidene)-5-fluoro-2-methyl-1H-inden-3-yl)acetic acid] | 30 to 50 | ≥ 50 | < 30 | ≥ 50 | < 30 | < 30 | < 30 | ≥ 50 | 30 to 50 | ≥ 50 | 30 to 50 | ≥ 50 | 30 to 50 | ≥ 50 | – | – | – | – | – | –
COc1ccc(Oc2ccc(/C=C3/C(C)=C(CC(=O)O)c4cc(Cl)ccc43)cc2)cc1 [C82, (Z)-2-(5-Chloro-1-(4-(4-methoxyphenoxy)benzylidene)-2-methyl-1H-inden-3-yl)acetic acid] | ≥ 50 | ≥ 50 | < 30 | ≥ 50 | < 30 | < 30 | ≥ 50 | ≥ 50 | ≥ 50 | ≥ 50 | 30 to 50 | ≥ 50 | < 30 | ≥ 50 | 30 to 50 | – | – | – | – | –
CC1=C(CC(=O)O)c2cc(Cl)c(Cl)cc2/C1=C\c1ccc(Oc2ccc(F)cc2)cc1 [C83, (Z)-2-(5,6-Dichloro-1-(4-(4-fluorophenoxy)benzylidene)-2-methyl-1H-inden-3-yl)acetic acid] | ≥ 50 | ≥ 50 | < 30 | ≥ 50 | ≥ 50 | ≥ 50 | ≥ 50 | ≥ 50 | ≥ 50 | ≥ 50 | ≥ 50 | ≥ 50 | ≥ 50 | ≥ 50 | – | – | – | – | – | –
CC1=C(CC(=O)O)c2cc(Cl)ccc2/C1=C\c1ccc(Oc2ccc(C(C)C)cc2)cc1 [C84, (Z)-2-(5-Chloro-1-(4-(4-isopropylphenoxy)benzylidene)-2-methyl-1H-inden-3-yl)acetic acid] | ≥ 50 | ≥ 50 | ≥ 50 | ≥ 50 | ≥ 50 | ≥ 50 | ≥ 50 | ≥ 50 | ≥ 50 | ≥ 50 | ≥ 50 | ≥ 50 | ≥ 50 | ≥ 50 | – | – | – | – | – | –
CCc1ccc(Oc2ccc(/C=C3/C(C)=C(CC(=O)O)c4cc(Cl)ccc43)cc2)cc1 [C85, (Z)-2-(5-Chloro-1-(4-(4-ethylphenoxy)benzylidene)-2-methyl-1H-inden-3-yl)acetic acid] | ≥ 50 | ≥ 50 | ≥ 50 | ≥ 50 | < 30 | ≥ 50 | 30 to 50 | ≥ 50 | ≥ 50 | ≥ 50 | < 30 | ≥ 50 | ≥ 50 | ≥ 50 | – | – | – | – | – | –
CC1=C(CC(=O)O)c2cc(Br)ccc2/C1=C\c1ccc(Oc2ccc(F)cc2)cc1 [C86, (Z)-2-(5-Bromo-1-(4-(4-fluorophenoxy)benzylidene)-2-methyl-1H-inden-3-yl)acetic acid] | < 30 | < 30 | < 30 | < 30 | < 30 | < 30 | < 30 | 30 to 50 | 30 to 50 | 30 to 50 | < 30 | < 30 | < 30 | < 30 | < 30 | < 30 | < 30 | 30 to 50 | 30 to 50 | < 30
CC1=C(CC(=O)O)c2c(Cl)cc(Cl)cc2/C1=C\c1ccc(Oc2ccc(F)cc2)cc1 [C87, (Z)-2-(4,6-Dichloro-1-(4-(4-fluorophenoxy)benzylidene)-2-methyl-1H-inden-3-yl)acetic acid] | ≥ 50 | ≥ 50 | < 30 | ≥ 50 | < 30 | ≥ 50 | ≥ 50 | ≥ 50 | ≥ 50 | ≥ 50 | < 30 | ≥ 50 | < 30 | ≥ 50 | – | – | – | – | – | –
